Experimental data: patent US20090005659A1, “Tissue Ablation by Shear Force for Sampling Biological Fluids and Delivering Active Agents” (priority 2000, published 2009)
Where “and” joins values, the source holds several entries; their conditions need not be identical. Equal values may be shown once.

Assays:
female Yorkshire pigs [1] = test: Transdermal delivery of insulin by passive diffusion following shear perforation of the skin; format: in vivo, pig
Protocol: Two female Yorkshire pigs of the same body weight range as those in Example 2 were immobilized with anesthetics. The test site on the side of the chest was prepared by clipping lightly off the hair and cleaning with an alcohol wipe. Special care was taken not to damage the skin. Shear perforation of the pig skin was performed with a Remington shaver (Remington Microscreen 1®, Remington, Bridgeport, Conn., USA) by pressing its screen firmly on the skin for about 1 second. This procedure was repeated at an adjacent skin site until 10 cm^2 of the skin was shear-perforated. Only slight erythema was observed on the test site. A drug reservoir patch made of silicone rubber (Silastic® Sheet, Medical Grade, Dow Corning Corp., Midland, Mich., USA) was affixed to the test skin with silicone adhesive (Secure® Adhesive, BT-401, Factor II, Inc., Lakeside, Ariz., USA). […] The thickness of the drug reservoir was 0.5 mm. An insulin solution (0.5 ml, Regular Iletin® II, Insulin Injection, USP, Purified Pork, Eli Lilly and Company, Indianapolis, Ind., USA) was placed into the drug reservoir which covered the shear-perforated skin to allow insulin molecules to enter the pig body through the pores on the stratum corneum driven by insulin concentration gradient. Transdermal insulin delivery was conducted in this way for 50 minutes. Insulin delivery was then terminated by removing the insulin patch. Blood samples were taken from the pigs prior to, during, and after transdermal insulin delivery for determination of blood glucose and insulin concentrations.

[2] = tested on: intact skin of human and swine; test: Penetration of insulin into intact skin (own experiment, result not shown); format: in vivo; conditions: no shear perforation
Source text: The stratum corneum is recognized as the primary barrier to percutaneous absorption of drug applied to the skin surface. The densely structured outmost skin layer consisting of flattened and keratinized dead skin cells provides a formidable permeation barrier to most small and virtually all large compounds. […] Our own experiment confirmed this (result not shown). This example investigates in vivo transdermal delivery of insulin into swine following application of shear perforation to remove the stratum corneum barrier at the test site.

pigs = test: Swine glucose monitoring study: subcutaneous fast-acting insulin, blood glucose; format: in vivo, pig; conditions: 2 IU subcutaneous, four pigs
Protocol: A swine study was conducted for glucose measurements in both capillary blood and ISF extracted from the micropores generated by the shear perforation procedure as described in Example 3. Briefly, subcutaneous injections of fast-acting insulin (2 IU, Regular Iletin® II, U-100, Pork, Eli Lilly, Indianapolis, Ind.) were administered to four pigs. […] Glucose changes in the blood were monitored periodically using One Touch® Basic glucose meter (LifeScan, Inc., Milpitas, Calif.) on blood samples from the ear vein. ISF samples were obtained by application of a weak suction to the micropores on the skin with an Asoivenin® suction device (ASPIR, Sannois, France). The ISF samples collected throughout the whole experiment were tested for glucose using both a FastTake® and One Touch® Basic glucose meter blood glucose meters (LifeScan, Inc., Milpitas, Calif.) as wells as an YSI glucose analyzer (Model 2700 Select Biochemistry Analyzer, YSI Inc., Yellow Springs, Ohio). A calibration procedure was conducted for the two home-use glucose meters (i.e., the One Touch® and FastTake® meters) against the YSI glucose analyzer using aqueous glucose solutions of various concentrations.

female Yorkshire pigs [3] = test: Subcutaneous injection of insulin (control experiment): blood glucose and plasma insulin profiles; format: in vivo, pig; conditions: four pigs
Source text: The subcutaneous administration of insulin provides a dose response to which a comparative measure of transdermally delivered insulin can be made. An insulin dose of 5 IU insulin (Regular Iletin® II, Insulin Injection, USP, Purified Pork, Eli Lilly and Company, Indianapolis, Ind., USA) was subcutaneously injected in the rear mid-ventral area of each of four female Yorkshire pigs (weight: 22-26 kg) with a 1 cc Sub-Q Precision Glide® Needle (Becton-Dickinson and Company, Franklin Lakes, N.J., USA).
As the insulin concentrations went back to its basal concentration (FIG. 5b), the blood glucose concentrations also were gradually returned toward its pre-insulin injection level (FIG. 5a).

insulin
blood glucose (female Yorkshire pigs [1]; 0.5 ml insulin solution patch over 10 cm^2 shear-perforated skin, 50 minutes, two pigs, FIG. 6a): Drastic reduction in the blood glucose
time for blood glucose concentrations to return to a near normal level (female Yorkshire pigs [1]; transdermal insulin over shear-perforated skin, 50 minutes delivery, two pigs): about 5 hours
peak plasma insulin concentrations (female Yorkshire pigs [1]; transdermal, shear-perforated skin 10 cm^2, one value per pig, FIG. 6b): 50 μIU/ml and 90 μIU/ml
time of peak plasma insulin concentration (female Yorkshire pigs [1]; transdermal, shear-perforated skin, peak at the end of delivery): 50 min
penetration into intact skin [2]: cannot penetrate into the intact skin
blood glucose concentration (pigs): significant reduction in the blood glucose concentration
peak insulin concentrations (female Yorkshire pigs [3]; 5 IU insulin subcutaneous injection, plasma, FIG. 5b): 31-55 μIU/ml
blood glucose concentration (female Yorkshire pigs [3]; 5 IU insulin subcutaneous, FIG. 5a): rapid reduction in blood glucose concentration
